In patent publication US9771370B2, “Compounds for the inhibition of indoleamine-2,3-dioxygenase” (Merck Patent GmbH, priority 2014, dated 2017):
pIC50: −log10 of the molar value.

Target: Recombinant human IDO (Homo sapiens, UniProt P14902)
Experiment: Bridge-IT tryptophan fluorescence assay of human IDO-1 inhibition
Assay type: biochemical
Details: recombinant human IDO 7.5 nM, L-tryptophan
How it was run: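 Two protocol variants: 100 μM L-Trp for 90 min at 37 °C, or 30 min enzyme–compound pre-incubation at 25 °C, then 50 μM L-Trp for 60 min at 25 °C. Reaction stopped in Bridge-IT solution A for 30 min at 30 °C.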

Recombinant human IDO, sequence (P14902 whole entry): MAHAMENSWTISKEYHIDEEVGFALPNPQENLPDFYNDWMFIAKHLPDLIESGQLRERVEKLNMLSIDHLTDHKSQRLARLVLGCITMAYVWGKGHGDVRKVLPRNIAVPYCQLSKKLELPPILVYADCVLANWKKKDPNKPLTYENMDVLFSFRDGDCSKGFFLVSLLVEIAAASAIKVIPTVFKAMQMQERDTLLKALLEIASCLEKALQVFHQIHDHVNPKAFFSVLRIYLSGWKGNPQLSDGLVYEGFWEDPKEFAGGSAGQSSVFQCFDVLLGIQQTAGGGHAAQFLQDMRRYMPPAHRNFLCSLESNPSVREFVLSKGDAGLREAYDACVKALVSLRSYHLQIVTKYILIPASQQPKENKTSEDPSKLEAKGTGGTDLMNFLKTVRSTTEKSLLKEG

Row | Compound | pIC50
1 | OC1CCC(F)(CCC2c3c(F)ccc(F)c3-c3cncn32)CC1 (single isomer, unassigned) [Compound 38a, 4-(2-(6,9-difluoro-5H-imidazo[5,1-a]isoindol-5-yl)ethyl)-4-fluorocyclohexanol] | < 6.00
2 | O[C@H]1CC[C@](F)(CC[C@@H]2c3ccccc3-c3cncn32)CC1 [Compound 14a, (1R,4s)-4-(2-((R)-5H-imidazo[5,1-a]isoindol-5-yl)ethyl)-4-fluorocyclohexan-1-ol] | < 6.00
3 | OC(CC1c2ncccc2-c2cncn21)C1CCC(F)(F)CC1 (single isomer, unassigned) [Compound 22c, 1-(4,4-difluorocyclohexyl)-2-[4,6,9-triazatricyclo[6.4.0.0^[2,6]]dodeca-1(8),2,4,9,11-pentaen-7-yl]ethan-1-ol] | < 6.00
4 | OC(CC1c2nc(OC3CC3)ccc2-c2cncn21)C1CCC(F)(F)CC1 (single isomer, unassigned) [Compound 69c, 2-[10-cyclopropoxy-4,6,9-triazatricyclo[6.4.0.0^[2,6]]dodeca-1(8),2,4,9,11-pentaen-7-yl]-1-(4,4-difluorocyclohexyl)ethan-1-ol] | < 6.00
5 | FC1(CCC2c3ncccc3-c3cncn32)CCCCC1 (single isomer, unassigned) [Compound 18b, 7-[2-(1-fluorocyclohexyl)ethyl]-4,6,9-triazatricyclo[6.4.0.0^[2,6]]dodeca-1(8),2,4,9,11-pentaene] | < 6.00
6 | OCC1CCC(F)(CCC2c3ccccc3-c3cncn32)CC1 (single isomer, unassigned) [Compound 59d, [4-fluoro-4-[2-[5H-imidazo[4,3-a]isoindol-5-yl]ethyl]cyclohexyl]methanol] | < 6.00
7 | COc1ccc2c(n1)C(CCC1(F)CCC3(CC1)CC3)n1cncc1-2 (single isomer, unassigned) [Compound 54b, 7-(2-{6-fluorospiro[2.5]octan-6-yl}ethyl)-10-methoxy-4,6,9-triazatricyclo[6.4.0.0^[2,6]]dodeca-1(8),2,4,9,11-pentaene] | < 6.00
8 | COc1ccc(F)c2c1-c1cncn1C2CCC1(F)CCCCC1 (single isomer, unassigned) [Compound 45b, 6-fluoro-5-(2-(1-fluorocyclohexyl)ethyl)-9-methoxy-5H-imidazo[5,1-a]isoindole] | < 6.00
9 | OC1CCC(F)(CCC2c3ccccc3-c3cncn32)CC1 (single isomer, unassigned) [Compound 13a, 4-(2-(5H-imidazo[5,1-a]isoindol-5-yl)ethyl)-4-fluorocyclohexanol] | < 6.00
10 | NC(=O)CC1CCC(F)(CCC2c3c(F)cccc3-c3cncn32)CC1 (single isomer, unassigned) [Compound 116c, 2-[4-Fluoro-4-[2-[6-fluoro-5H-imidazo[4,3-a]isoindol-5-yl]ethyl]cyclohexyl]acetamide] | < 6.00
11 | OC(CC1c2c(F)cncc2-c2cncn21)C1CCCCC1 (centres unmarked) [Compound 3a, 1-cyclohexyl-2-[9-fluoro-4,6,11-triazatricyclo[6.4.0.0^[2,6]]dodeca-1(8),2,4,9,11-pentaen-7-yl]ethan-1-ol] | < 6.00
12 | OC(CC1c2nc(Cl)ccc2-c2cncn21)C1CCC(F)(F)CC1 (single isomer, unassigned) [Compound 52c, 2-[10-chloro-4,6,9-triazatricyclo[6.4.0.0^[2,6]]dodeca-1(8),2,4,9,11-pentaen-7-yl]-1-(4,4-difluorocyclohexyl)ethan-1-ol] | < 6.00
13 | OC(CC1c2nc(C(F)(F)F)ccc2-c2cncn21)C1CCC(F)(F)CC1 (single isomer, unassigned) [Compound 77a, 1-(4,4-difluorocyclohexyl)-2-[10-(trifluoromethyl)-4,6,9-triazatricyclo[6.4.0.0^[2,6]]dodeca-1(8),2,4,9,11-pentaen-7-yl]ethan-1-ol] | < 6.00
14 | OCC1CCC(F)(CCC2c3c(F)cccc3-c3cncn32)CC1 (single isomer, unassigned) [Compound 84b, [4-fluoro-4-[2-[6-fluoro-5H-imidazo[4,3-a]isoindol-5-yl]ethyl]cyclohexyl]methanol] | < 6.00
15 | OC(CC1c2nc(OC3CC3)ccc2-c2cncn21)C1CCC(F)(F)CC1 (single isomer, unassigned) [Compound 69d, 2-[10-cyclopropoxy-4,6,9-triazatricyclo[6.4.0.0^[2,6]]dodeca-1(8),2,4,9,11-pentaen-7-yl]-1-(4,4-difluorocyclohexyl)ethan-1-ol] | < 6.00

The remaining lines, values ahead:

Row | pIC50 | Compound
16 | 6.00 to 7.00 | NC(=O)C1CCC(F)(CCC2c3c(F)cccc3-c3cncn32)CC1 (single isomer, unassigned) [Compound 81a, 4-fluoro-4-[2-[6-fluoro-5H-imidazo[4,3-a]isoindol-5-yl]ethyl]cyclohexane-1-carboxamide]
17 | < 6.00 | CC1(C)CCC(C(O)CC2c3nc(F)ccc3-c3cncn32)CC1 (single isomer, unassigned) [Compound 25a, 1-(4,4-dimethylcyclohexyl)-2-[10-fluoro-4,6,9-triazatricyclo[6.4.0.0^[2,6]]dodeca-1(8),2,4,9,11-pentaen-7-yl]ethan-1-ol]
18 | > 7.00 | OC1(C2CCC(F)(CCC3c4ccccc4-c4cncn43)CC2)CC1 (single isomer, unassigned) [Compound 60d, 1-[4-fluoro-4-[2-[5H-imidazo[4,3-a]isoindol-5-yl]ethyl]cyclohexyl]cyclopropan-1-ol]
19 | > 7.00 | Fc1cccc2c1C(CCC1(F)CCCCC1)n1cncc1-2 (single isomer, unassigned) [Compound 19b, 6-fluoro-5-(2-(1-fluorocyclohexyl)ethyl)-5H-imidazo[5,1-a]isoindole]
20 | > 7.00 | O=C(O)C1CCC(F)(CCC2c3c(F)cccc3-c3cncn32)CC1 (single isomer, unassigned) [Compound 80a, 4-fluoro-4-(2-[6-fluoro-5H-imidazo[4,3-a]isoindol-5-yl]ethyl)cyclohexane-1-carboxylic acid]
21 | 6.00 to 7.00 | FC(CC1c2ccccc2-c2cncn21)C1CCCCC1 (mixture of isomers) [Compound 108a, 5-[2-cyclohexyl-2-fluoroethyl]-5H-imidazo[4,3-a]isoindole]
22 | 6.00 to 7.00 | OC1CCC(C(F)(F)CC2c3c(F)ccc(F)c3-c3cncn32)CC1 (mixture of isomers) [Compound 78a, 4-(2-[6,9-difluoro-5H-imidazo[4,3-a]isoindol-5-yl]-1,1-difluoroethyl)cyclohexan-1-ol]
23 | 6.00 to 7.00 | Fc1cccc2c1C(CC(F)C1CCCCC1)n1cncc1-2 (single isomer, unassigned) [Compound 98a, 5-[2-cyclohexyl-2-fluoroethyl]-6-fluoro-5H-imidazo[4,3-a]isoindole]
24 | > 7.00 | OC1CCC(F)(CCC2c3c(Cl)cccc3-c3cncn32)CC1 (single isomer, unassigned) [Compound 71d, 4-[2-[6-chloro-5H-imidazo[4,3-a]isoindol-5-yl]ethyl]-4-fluorocyclohexan-1-ol]
25 | 6.00 to 7.00 | COc1ccc2c(n1)C(CC(N)C1CCCCC1)n1cncc1-2 (single isomer, unassigned) [Compound 118b, 1-cyclohexyl-2-[10-methoxy-4,6,9-triazatricyclo[6.4.0.0^[2,6]]dodeca-1(8),2,4,9,11-pentaen-7-yl]ethan-1-amine]
26 | > 7.00 | OC(CC1c2cc(F)ncc2-c2cncn21)C1CCCCC1 (single isomer, unassigned) [Compound 24c, 1-cyclohexyl-2-[10-fluoro-4,6,11-triazatricyclo[6.4.0.0^[2,6]]dodeca-1(8),2,4,9,11-pentaen-7-yl]ethan-1-ol]
27 | 6.00 to 7.00 | OC1(C2CCC(F)(CCC3c4c(Cl)cccc4-c4cncn43)CC2)CC1 (centres unmarked) [Compound 106b, 1-[4-(2-[6-chloro-5H-imidazo[4,3-a]isoindol-5-yl]ethyl)-4-fluorocyclohexyl]cyclopropan-1-ol]
28 | 6.00 to 7.00 | COc1ccc2c(n1)C(CC(N)C1CCC(C)(C)CC1)n1cncc1-2 (single isomer, unassigned) [Compound 119c, 1-(4,4-dimethylcyclohexyl)-2-[10-methoxy-4,6,9-triazatricyclo[6.4.0.0^[2,6]]dodeca-1(8),2,4,9,11-pentaen-7-yl]ethan-1-amine]
29 | 6.00 to 7.00 | FC(F)(CC1c2ccccc2-c2cncn21)C1CCCCC1 (racemic) [Compound 64, 5-(2-cyclohexyl-2,2-difluoroethyl)-5H-imidazo[4,3-a]isoindole]
30 | > 7.00 | OC1CCC(C(F)(F)CC2c3ccccc3-c3cncn32)CC1 (mixture of isomers) [Compound 74a, 4-(1,1-difluoro-2-[5H-imidazo[4,3-a]isoindol-5-yl]ethyl)cyclohexan-1-ol]
31 | > 7.00 | CC(C)(O)C1CCC(F)(CCC2c3c(F)cccc3-c3cncn32)CC1 (mixture of isomers) [Compound 86b, 2-[4-fluoro-4-(2-[6-fluoro-5H-imidazo[4,3-a]isoindol-5-yl]ethyl)cyclohexyl]propan-2-ol]
32 | > 7.00 | NC(=O)C1CCC(F)(CCC2c3c(Cl)cccc3-c3cncn32)CC1 (single isomer, unassigned) [Compound 99c, 4-[2-[6-chloro-5H-imidazo[4,3-a]isoindol-5-yl]ethyl]-4-fluorocyclohexane-1-carboxamide]
33 | > 7.00 | OC1(C2CCC(F)(CCC3c4c(F)cccc4-c4cncn43)CC2)CC1 (mixture of isomers) [Compound 85a, 1-[4-fluoro-4-(2-[6-fluoro-5H-imidazo[4,3-a]isoindol-5-yl]ethyl)cyclohexyl]cyclopropan-1-ol]
34 | 6.00 to 7.00 | NC1CCC(F)(CCC2c3ccccc3-c3cncn32)CC1 (mixture of isomers) [Compound 104b, 4-fluoro-4-(2-[5H-imidazo[4,3-a]isoindol-5-yl]ethyl)cyclohexan-1-amine]
35 | > 7.00 | NC(=O)CC1CCC(F)(CCC2c3c(F)cccc3-c3cncn32)CC1 (single isomer, unassigned) [Compound 116b, 2-[4-Fluoro-4-[2-[6-fluoro-5H-imidazo[4,3-a]isoindol-5-yl]ethyl]cyclohexyl]acetamide]
